Assay results from paper doi:10.1101/2025.09.09.675175v1 (biorxiv, 2025).

Key:
GdpP-C (GdpP313-656) [1] = biological target: T1, GdpP-C (GdpP313-656) (Staphylococcus aureus, UniProt Q2G2T6); test: isothermal titration calorimetry; format: binding
T1 sequence (Q2G2T6 313-655): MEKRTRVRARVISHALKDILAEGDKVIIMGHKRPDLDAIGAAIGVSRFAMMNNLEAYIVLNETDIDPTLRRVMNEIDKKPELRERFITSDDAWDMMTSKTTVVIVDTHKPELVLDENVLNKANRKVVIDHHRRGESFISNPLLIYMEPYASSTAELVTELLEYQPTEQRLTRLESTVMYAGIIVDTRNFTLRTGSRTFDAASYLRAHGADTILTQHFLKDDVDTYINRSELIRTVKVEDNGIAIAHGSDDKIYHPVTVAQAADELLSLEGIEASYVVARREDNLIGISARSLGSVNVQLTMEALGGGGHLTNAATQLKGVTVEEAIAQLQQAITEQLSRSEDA

GdpP-C (GdpP313-656) [2] = biological target: T1, GdpP-C (GdpP313-656); test: phosphomolybdate blue Pi release, Michaelis-Menten fit; format: biochemical

Molecule `CC(=O)CCCCn1c(=O)c2c(ncn2C)n(C)c1=O` [pentoxifylline] has a Kd (GdpP-C (GdpP313-656) [1]) of 33.2 µM and a Ki (GdpP-C (GdpP313-656) [2]) of 68.3 µM.
